The source of these data is the OPERA property sets (Mansouri et al. 2018).

Each structure is given as a SMILES string.

Conditions in one series: not given
The boiling point is the temperature of boiling at a given pressure. Usually melting point stands for the temperature, or range, at which the solid turns liquid. With `Cc1ccccc1CO`, the boiling point is 224 °C and the melting point was determined as 38 °C.
Take `CCCCCc1ccc(C)cc1O`: the melting point was 24 °C.
In the case of `CCCSP(=O)(OCC)Oc1cnn(-c2ccc(Cl)cc2)c1` (configuration not stated), the log10 vapour pressure (mmHg) was -7.92.
As to `c1ccc2n[nH]nc2c1`, the ready biodegradability entry is given as “not readily biodegradable”.
`CN(C)[C@@H]1C(O)=C(C(N)=O)C(=O)[C@@]2(O)C(O)=C3C(=O)c4c(O)cccc4[C@@](C)(O)[C@H]3[C@H](O)[C@@H]12` returned a melting point of 184 °C.
Regarding `CC(C)(c1cc(Br)c(OCC(Br)CBr)c(Br)c1)c1cc(Br)c(OCC(Br)CBr)c(Br)c1` (configuration not stated), the ready biodegradability entry is “not readily biodegradable”.
Turning to `c1ccc(NC2CCCCC2)cc1`, the boiling point came out at 279 °C and the melting point amounted to 16 °C.
Take `c1ccc(CCc2ccccn2)cc1`: the boiling point worked out at 289 °C and the melting point was -3 °C.
As for `O=C(O)CONC(=O)c1ccccc1`, the melting point was 140 °C.
As for `OCc1ccc2ccccc2c1`, the melting point is 81.3 °C.
With `CCCC=O`, the log10 Henry constant (atm·m³/mol) is -3.94, the log10 Koa was 3.39, the log10 vapour pressure (mmHg) worked out at 2.05 and the melting point was -99 °C. For the same molecule, the ready biodegradability entry is recorded as “readily biodegradable”.
Turning to `c1ccc(COCc2ccccc2)cc1`, the boiling point turned out to be 298 °C, the log10 vapour pressure (mmHg) is -2.99, the melting point came to 3.6 °C and the ready biodegradability result is listed as “not readily biodegradable”.
Molecule `O=C(O)C(Cc1cc(I)c(O)c(I)c1)c1ccccc1` (configuration not stated) registered a melting point of 164 °C.
For the molecule `Cc1ccccc1N(C)C`, the boiling point came out at 194 °C, the log10 vapour pressure (mmHg) was -0.0643 and the melting point was -60 °C.
`CCN(CC)c1cccc(O)c1` had a boiling point of 276 °C and a melting point of 78 °C.
As for `CCC(O)(CC)C(C)C`, the boiling point worked out at 160 °C.
Take `Cc1ccc2nc3sc(=O)sc3nc2c1`: the log10 Koc (L/kg) stood at 3.36, the log10 vapour pressure (mmHg) is -6.7 and the melting point turned out to be 170 °C.
For the molecule `CCCCCC(C)C`, the boiling point came out at 118 °C, the log10 biodegradation half-life (days) came out at 0.477, the log10 vapour pressure (mmHg) was 1.32 and the melting point was -109 °C.
In turn, `CCOc1ccc(Cc2nc(C)cc3cc(OC)c(OC)cc23)cc1OC` had a melting point of 124 °C.
For `Clc1cc2oc3c(Cl)c(Cl)c(Cl)cc3c2cc1Cl`, the log10 Koa came out at 10.4, the log10 vapour pressure (mmHg) was -8.58 and the melting point worked out at 196 °C.
Molecule `C=C(C)CNc1ccc(C(C)C(=O)O)cc1` (configuration not stated) registered a melting point of 107 °C.
For `CC(C)(C)OOC(C)(C)CCC(C)(C)OOC(C)(C)C`, the melting point turned out to be 8 °C and the ready biodegradability result was “not readily biodegradable”.
Molecule `C[Si](C)(Cl)CBr` had a boiling point of 131 °C.
The molecule `CCCCC(C)(O)CCC` (configuration not stated) gave a boiling point of 180 °C.
The molecule `CS(=O)(=O)OCCCNCCCOS(C)(=O)=O` gave a melting point of 116 °C.
`O=C1C(O)=C(C2CCCCC2)C(=O)c2ccccc21` yielded a melting point of 136 °C.
The molecule `O=c1[nH]cc(Br)c(=O)[nH]1` came in with a melting point of 310 °C.
In the case of `CC(C)CC(C)O` (configuration not stated), the boiling point came to 132 °C, the log10 Henry constant (atm·m³/mol) was -4.35, the log10 vapour pressure (mmHg) was found to be 0.724 and the melting point was -90 °C. Moreover, the ready biodegradability result was “readily biodegradable”.
Take `CC1(C)CCCC(=O)C1`: the boiling point came out at 180 °C.
Regarding `CC[C@H]1OC(=O)[C@H](C)[C@@H](O[C@@H]2O[C@H](C)C[C@H](N(C)C)[C@H]2O)[C@@H](C)C[C@@H](C)C(=O)C=C[C@]1(C)O`, the melting point was found to be 196 °C.
`OC(CCN1CCCCC1)(c1ccccc1)c1ccccc1` came in with a melting point of 120 °C.
Turning to `Cc1cnccn1`, the boiling point was 137 °C, the log10 Henry constant (atm·m³/mol) was -5.66, the log10 vapour pressure (mmHg) worked out at 0.906 and the melting point is -29 °C.
On to `N#Cc1cc(I)c(O)c(I)c1`, for which the melting point is 212 °C and the ready biodegradability entry is on record as “not readily biodegradable”.
As to `Cc1ccc(O)c(-n2nc3ccccc3n2)c1`, the melting point came out at 132 °C.
For the molecule `Clc1[nH]nc2ccccc12`, the melting point turned out to be 149 °C.
Turning to `CC1CCC(C(C)C)C(O)C1` (configuration not stated), the log10 vapour pressure (mmHg) is -1.08, the melting point is 39 °C and the ready biodegradability entry is given as “not readily biodegradable”.
Take `C/C=C(/C)CCC`: the boiling point is 95.6 °C and the melting point is -118 °C.
As to `CCc1ccc(Cc2ccccc2)cc1`, the boiling point worked out at 297 °C and the melting point was -24 °C.
For the molecule `Oc1ccc2c(c1)[C@@]13CCCC[C@H]1[C@@H](C2)NCC3`, the melting point came out at 271 °C.
As for `CCCOCCC`, the boiling point worked out at 90 °C, the log10 Henry constant (atm·m³/mol) is -2.66, the log10 Koa was 2.97 and the log10 vapour pressure (mmHg) turned out to be 1.8. Further, the melting point was -122 °C.
As to `Cc1cc(Cl)c(C)cc1Cl`, the boiling point came out at 222 °C and the melting point amounted to 71 °C.

The series is the same for the next values; noted with them: fish.
For `c1ccc(COCc2ccccc2)cc1`, the log10 BCF came to 2.43 and the log10 biotransformation half-life (days) worked out at 0.63.
Molecule `Clc1cc2oc3c(Cl)c(Cl)c(Cl)cc3c2cc1Cl` returned a log10 BCF of 4.13 and a log10 biotransformation half-life (days) of 1.36.
`CC(C)(C)OOC(C)(C)CCC(C)(C)OOC(C)(C)C` yielded a log10 BCF of 3.48 and a log10 biotransformation half-life (days) of 0.77.
Consider `CC1CCC(C(C)C)C(O)C1` (configuration not stated), for which the log10 BCF was 1.03 and the log10 biotransformation half-life (days) was -1.19.
